Laboratory results as given in paper PMC8765783, “Identification of the potential active site of the septal peptidoglycan polymerase FtsW” (PLoS Genetics, 2022).

Tests used:
Test in all cases: fluorescence anisotropy
Type in all cases: binding
Conditions in all cases: 50 mM Hepes pH 7.5, 0.1 M NaCl, 0.005% DDM, 0.2% CHAPS, 21°C, 0.33 μM probe; labelled compound
[1] = target: T1, HisFtsW-FtsI(PBP3) complex (FtsW-FtsI/PBP3, "W 3") (Escherichia coli, UniProt P0ABG4)
T1 construct: His-tagged FtsW co-expressed with untagged FtsI/PBP3 from pDML2041 in E. coli C43(DE3); DDM-solubilised membranes, HisTrap, G25 desalting; tag kept; with Peptidoglycan D,D-transpeptidase FtsI
T1 sequence (P0ABG4 1-414): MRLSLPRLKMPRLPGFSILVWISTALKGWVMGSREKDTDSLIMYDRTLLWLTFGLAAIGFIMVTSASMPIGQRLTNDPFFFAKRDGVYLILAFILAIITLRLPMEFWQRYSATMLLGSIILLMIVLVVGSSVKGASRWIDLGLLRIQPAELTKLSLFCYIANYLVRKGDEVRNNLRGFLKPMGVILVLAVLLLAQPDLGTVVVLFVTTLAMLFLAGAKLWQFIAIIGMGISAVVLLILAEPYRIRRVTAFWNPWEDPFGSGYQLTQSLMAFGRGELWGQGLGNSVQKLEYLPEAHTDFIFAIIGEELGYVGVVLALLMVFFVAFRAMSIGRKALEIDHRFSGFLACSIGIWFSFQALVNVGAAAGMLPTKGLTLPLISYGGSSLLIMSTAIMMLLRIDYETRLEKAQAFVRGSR
T1 sequence (P0AD68 1-577 partner): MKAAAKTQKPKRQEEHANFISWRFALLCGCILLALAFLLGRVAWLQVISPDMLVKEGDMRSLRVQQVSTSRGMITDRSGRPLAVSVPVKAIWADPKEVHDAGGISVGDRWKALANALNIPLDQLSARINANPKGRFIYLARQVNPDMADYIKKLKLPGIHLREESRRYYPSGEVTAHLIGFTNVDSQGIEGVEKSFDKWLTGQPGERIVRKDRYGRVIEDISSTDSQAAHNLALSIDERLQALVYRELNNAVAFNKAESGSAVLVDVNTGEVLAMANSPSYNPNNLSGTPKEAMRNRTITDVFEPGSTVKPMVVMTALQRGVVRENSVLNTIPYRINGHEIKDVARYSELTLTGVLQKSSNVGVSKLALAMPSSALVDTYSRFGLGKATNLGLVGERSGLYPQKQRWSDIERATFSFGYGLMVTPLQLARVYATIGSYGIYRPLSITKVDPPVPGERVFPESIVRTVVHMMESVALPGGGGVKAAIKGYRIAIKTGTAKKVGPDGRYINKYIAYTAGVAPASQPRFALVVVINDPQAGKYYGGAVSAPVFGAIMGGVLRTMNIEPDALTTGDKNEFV

[2] = target: T2, HisFtsW-FtsI(PBP3) complex (FtsW-FtsI/PBP3, "W 3") (Escherichia coli, UniProt P0ABG4, A135T)
T2 construct: His-tagged FtsW co-expressed with untagged FtsI/PBP3 from pDML2041 in E. coli C43(DE3); DDM-solubilised membranes, HisTrap, G25 desalting; tag kept; with Peptidoglycan D,D-transpeptidase FtsI
T2 sequence (P0ABG4 1-414 A135T): T1 sequence (P0ABG4 1-414)
T2 sequence (P0AD68 1-577 partner): T1 sequence (P0AD68 1-577 partner)
From the text: (§1) fluorescence anisotropy on HisFtsW-FtsI(PBP3) complex (FtsW-FtsI/PBP3, "W 3")

[3] = target: T3, HisFtsW-FtsI(PBP3) complex (FtsW-FtsI/PBP3, "W 3") (Escherichia coli, UniProt P0ABG4, D297A)
T3 construct: His-tagged FtsW co-expressed with untagged FtsI/PBP3 from pDML2041 in E. coli C43(DE3); DDM-solubilised membranes, HisTrap, G25 desalting; tag kept; with Peptidoglycan D,D-transpeptidase FtsI
T3 sequence (P0ABG4 1-414 D297A): T1 sequence (P0ABG4 1-414)
T3 sequence (P0AD68 1-577 partner): T1 sequence (P0AD68 1-577 partner)
From the text: as §1

[4] = target: T4, HisFtsW-FtsI(PBP3) complex (FtsW-FtsI/PBP3, "W 3") (Escherichia coli, UniProt P0ABG4, G199A)
T4 construct: His-tagged FtsW co-expressed with untagged FtsI/PBP3 from pDML2041 in E. coli C43(DE3); DDM-solubilised membranes, HisTrap, G25 desalting; tag kept; with Peptidoglycan D,D-transpeptidase FtsI
T4 sequence (P0ABG4 1-414 G199A): T1 sequence (P0ABG4 1-414)
T4 sequence (P0AD68 1-577 partner): T1 sequence (P0AD68 1-577 partner)
From the text: as §1

[5] = target: T5, HisFtsW-FtsI(PBP3) complex (FtsW-FtsI/PBP3, "W 3") (Escherichia coli, UniProt P0ABG4, G371S)
T5 construct: His-tagged FtsW co-expressed with untagged FtsI/PBP3 from pDML2041 in E. coli C43(DE3); DDM-solubilised membranes, HisTrap, G25 desalting; tag kept; with Peptidoglycan D,D-transpeptidase FtsI
T5 sequence (P0ABG4 1-414 G371S): T1 sequence (P0ABG4 1-414)
T5 sequence (P0AD68 1-577 partner): T1 sequence (P0AD68 1-577 partner)
From the text: as §1

[6] = target: T6, HisFtsW-FtsI(PBP3) complex (FtsW-FtsI/PBP3, "W 3") (Escherichia coli, UniProt P0ABG4, G381D)
T6 construct: His-tagged FtsW co-expressed with untagged FtsI/PBP3 from pDML2041 in E. coli C43(DE3); DDM-solubilised membranes, HisTrap, G25 desalting; tag kept; with Peptidoglycan D,D-transpeptidase FtsI
T6 sequence (P0ABG4 1-414 G381D): T1 sequence (P0ABG4 1-414)
T6 sequence (P0AD68 1-577 partner): T1 sequence (P0AD68 1-577 partner)
From the text: as §1

[7] = target: T7, HisFtsW-FtsI(PBP3) complex (FtsW-FtsI/PBP3, "W 3") (Escherichia coli, UniProt P0ABG4, P196T)
T7 construct: His-tagged FtsW co-expressed with untagged FtsI/PBP3 from pDML2041 in E. coli C43(DE3); DDM-solubilised membranes, HisTrap, G25 desalting; tag kept; with Peptidoglycan D,D-transpeptidase FtsI
T7 sequence (P0ABG4 1-414 P196T): T1 sequence (P0ABG4 1-414)
T7 sequence (P0AD68 1-577 partner): T1 sequence (P0AD68 1-577 partner)
From the text: as §1

[8] = target: T8, HisFtsW-FtsI(PBP3) complex (FtsW-FtsI/PBP3, "W 3") (Escherichia coli, UniProt P0ABG4, Q147E)
T8 construct: His-tagged FtsW co-expressed with untagged FtsI/PBP3 from pDML2041 in E. coli C43(DE3); DDM-solubilised membranes, HisTrap, G25 desalting; tag kept; with Peptidoglycan D,D-transpeptidase FtsI
T8 sequence (P0ABG4 1-414 Q147E): T1 sequence (P0ABG4 1-414)
T8 sequence (P0AD68 1-577 partner): T1 sequence (P0AD68 1-577 partner)
From the text: as §1

[9] = target: T9, HisFtsW-FtsI(PBP3) complex (FtsW-FtsI/PBP3, "W 3") (Escherichia coli, UniProt P0ABG4, R243L)
T9 construct: His-tagged FtsW co-expressed with untagged FtsI/PBP3 from pDML2041 in E. coli C43(DE3); DDM-solubilised membranes, HisTrap, G25 desalting; tag kept; with Peptidoglycan D,D-transpeptidase FtsI
T9 sequence (P0ABG4 1-414 R243L): T1 sequence (P0ABG4 1-414)
T9 sequence (P0AD68 1-577 partner): T1 sequence (P0AD68 1-577 partner)
From the text: as §1

[10] = target: T10, HisFtsW-FtsI(PBP3) complex (FtsW-FtsI/PBP3, "W 3") (Escherichia coli, UniProt P0ABG4, W138A)
T10 construct: His-tagged FtsW co-expressed with untagged FtsI/PBP3 from pDML2041 in E. coli C43(DE3); DDM-solubilised membranes, HisTrap, G25 desalting; tag kept; with Peptidoglycan D,D-transpeptidase FtsI
T10 sequence (P0ABG4 1-414 W138A): T1 sequence (P0ABG4 1-414)
T10 sequence (P0AD68 1-577 partner): T1 sequence (P0AD68 1-577 partner)
From the text: as §1

[11] = target: T11, HisFtsW-FtsI(PBP3) complex (FtsW-FtsI/PBP3, "W 3") (Escherichia coli, UniProt P0ABG4, Y242H)
T11 construct: His-tagged FtsW co-expressed with untagged FtsI/PBP3 from pDML2041 in E. coli C43(DE3); DDM-solubilised membranes, HisTrap, G25 desalting; tag kept; with Peptidoglycan D,D-transpeptidase FtsI
T11 sequence (P0ABG4 1-414 Y242H): T1 sequence (P0ABG4 1-414)
T11 sequence (P0AD68 1-577 partner): T1 sequence (P0AD68 1-577 partner)
From the text: as §1

## CC(=O)N[C@H]1[C@H](O[C@H]2[C@H](O[C@H](C)C(=O)N[C@@H](C)C(=O)N[C@H](CCC(=O)N[C@@H](CCCCNc3ccc([N+](=O)[O-])c4nonc34)C(=O)N[C@H](C)C(=O)N[C@H](C)C(=O)O)C(=O)O)[C@@H](NC(C)=O)[C@@H](OP(=O)(O)OP(=O)(O)OC/C=C(/C)CC/C=C(/C)CC/C=C(/C)CC/C=C(/C)CC/C=C(/C)CC/C=C(/C)CC/C=C(/C)CC/C=C(/C)CC/C=C(\C)CC/C=C(\C)CCC=C(C)C)O[C@@H]2CO)O[C@H](CO)[C@@H](O)[C@@H]1O [NBD-lipid II]
[1]
  Kd: 130 nM
[2]
  Kd: 60 nM
[3]
  Kd: 90 nM
[4]
  Kd: 110 nM
[5]
  Kd: 50 nM
[6]
  Kd: 100 nM
[7]
  Kd: 60 nM
[8]
  Kd: 70 nM
[9]
  Kd: 70 nM
[10]
  Kd: 60 nM
[11]
  Kd: 40 nM
